In the NIST ThermoML archive (doi:10.1016/j.jct.2017.06.014):
± gives the expanded uncertainty stated by the source.

Details: Liquid, Ebulliometric method (Recirculating still)

| vapor or sublimation pressure (370.35 K) | vapor or sublimation pressure (373.15 K) | Compound |
| --- | --- | --- |
| 101.3 ± 1.1 kPa |  | CCCO [propan-1-ol] |
|  | 101.3 ± 1.1 kPa | O [water] |
